From patent US12590953B2, “Methods for screening cereblon modifying compounds” (CELGENE CORPORATION, priority 2018, dated 2026)
Entries after “also recorded” stand apart in the source; their conditions may differ.

Columns and labels:
SALL4 mRNA = experiment: In situ hybridization for SALL4 RNA in rabbit embryo limb buds; assay type: in vivo; settings: treated vs untreated
Method: A fully automated SALL4 ISH assay was performed on Leica BOND RX IHC & ISH stainer with the BOND Research Detection System (Leica, Cat. No. DS9455). Formalin fixed paraffin embedded (FFPE) rabbit embryos were sectioned at four micron thickness, baked at 60° C. for 1 hour and then deparaffinized in Dewax solution at 72° C. Antigen retrieval was performed in Epitope Retrieval 2 (ER2, pH 9.0) for 15 min at 95° C. Custom-designed rabbit SALL4 target probe was applied on the slides and incubated at 42° C. for 2 hours. SALL4 signal was then amplified with the RNAscope LS Multiplex Fluorescent Reagent Kit (ACD, Cat. No. 322800) using the BOND RX default ACD ISH protocol. SALL4 signal was detected with Opal TSA fluorophore 570 (PerkinElmer, Cat. No. FP1488001KT) at a 1:1500 dilution for a 30 min incubation. Slides were then coverslipped manually using ProLong Diamond Antifade Mountant with DAPI (Life Technology, Catalog No. P36966). After whole slide scan at 4× magnification was completed, 40× magnification images were acquired using Perkin Elmer Vectra 3.0 multispectral image platform.

SALL4 = target: T1, SALL4 (Homo sapiens, UniProt Q96SW2); experiment: SALL4 immunohistochemistry in huCRBN mouse testis; assay type: in vivo; settings: huCRBN mice, up to 1000 mg/kg for 7 days
T1 construct: from tissue; host or cells: testis of homozygous huCRBN knock-in mice
Method: The SALL4 and ZFP91 protein levels were examined by immunohistochemistry in rabbit, wild-type mouse, and humanized cereblon mouse testes. […] HuCRBN Mice were treated for 7 days and testis were collected and examined by immunohistochemistry (n=3 animals per treatment group per species).
Rabbit embryos were stained for SALL4, and mouse testis were stained for SALL4 and ZFP91. Immunohistochemistry (IHC) was performed on the Bond-III automated slide stainer (Leica Microsystems, Buffalo Grove, Ill.) using the Bond Polymer Refine Detection system (Leica Microsystems, DS9800). Formalin fixed paraffin embedded (FFPE) tissues were sectioned at four micron thick and deparaffinized on the Bond-Max instrument. Antigen retrieval was performed with Epitope Retrieval 2 (ER2, pH 9.0) for 20 min at 100° C. The slides were blocked for endogenous peroxidase activity with Peroxide Block for 5 minutes at room temperature. Sections were then incubated with the mouse monoclonal anti-SALL4 EE-30 antibody (Santa Cruz, sc-101147) at a 1:100 dilution for 60 min at room temperature, or with the rabbit monoclonal anti-ZFP91 antibody (Celgene custom clone 122-8-6) at 0.25 ug/ml. For mouse testis, primary antibodies were incubated for 15 min at room temperature, and Post-Primary and horseradish peroxidase (HRP) labeled Polymer were incubated at the instrument's default conditions. […]

T1 sequence (Q96SW2 whole entry): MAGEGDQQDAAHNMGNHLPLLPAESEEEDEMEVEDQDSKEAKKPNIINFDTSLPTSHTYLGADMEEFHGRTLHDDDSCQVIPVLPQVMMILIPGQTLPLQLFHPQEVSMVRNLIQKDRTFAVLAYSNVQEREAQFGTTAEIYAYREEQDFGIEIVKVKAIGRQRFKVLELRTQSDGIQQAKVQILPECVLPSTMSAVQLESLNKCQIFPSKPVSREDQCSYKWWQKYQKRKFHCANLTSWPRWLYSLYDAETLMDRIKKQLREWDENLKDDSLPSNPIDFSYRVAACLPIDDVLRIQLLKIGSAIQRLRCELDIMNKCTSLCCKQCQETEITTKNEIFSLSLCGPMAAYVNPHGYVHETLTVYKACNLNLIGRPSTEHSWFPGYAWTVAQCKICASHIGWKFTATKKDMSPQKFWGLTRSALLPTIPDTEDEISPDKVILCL
T1 sequence (Q3U1J4 whole entry partner): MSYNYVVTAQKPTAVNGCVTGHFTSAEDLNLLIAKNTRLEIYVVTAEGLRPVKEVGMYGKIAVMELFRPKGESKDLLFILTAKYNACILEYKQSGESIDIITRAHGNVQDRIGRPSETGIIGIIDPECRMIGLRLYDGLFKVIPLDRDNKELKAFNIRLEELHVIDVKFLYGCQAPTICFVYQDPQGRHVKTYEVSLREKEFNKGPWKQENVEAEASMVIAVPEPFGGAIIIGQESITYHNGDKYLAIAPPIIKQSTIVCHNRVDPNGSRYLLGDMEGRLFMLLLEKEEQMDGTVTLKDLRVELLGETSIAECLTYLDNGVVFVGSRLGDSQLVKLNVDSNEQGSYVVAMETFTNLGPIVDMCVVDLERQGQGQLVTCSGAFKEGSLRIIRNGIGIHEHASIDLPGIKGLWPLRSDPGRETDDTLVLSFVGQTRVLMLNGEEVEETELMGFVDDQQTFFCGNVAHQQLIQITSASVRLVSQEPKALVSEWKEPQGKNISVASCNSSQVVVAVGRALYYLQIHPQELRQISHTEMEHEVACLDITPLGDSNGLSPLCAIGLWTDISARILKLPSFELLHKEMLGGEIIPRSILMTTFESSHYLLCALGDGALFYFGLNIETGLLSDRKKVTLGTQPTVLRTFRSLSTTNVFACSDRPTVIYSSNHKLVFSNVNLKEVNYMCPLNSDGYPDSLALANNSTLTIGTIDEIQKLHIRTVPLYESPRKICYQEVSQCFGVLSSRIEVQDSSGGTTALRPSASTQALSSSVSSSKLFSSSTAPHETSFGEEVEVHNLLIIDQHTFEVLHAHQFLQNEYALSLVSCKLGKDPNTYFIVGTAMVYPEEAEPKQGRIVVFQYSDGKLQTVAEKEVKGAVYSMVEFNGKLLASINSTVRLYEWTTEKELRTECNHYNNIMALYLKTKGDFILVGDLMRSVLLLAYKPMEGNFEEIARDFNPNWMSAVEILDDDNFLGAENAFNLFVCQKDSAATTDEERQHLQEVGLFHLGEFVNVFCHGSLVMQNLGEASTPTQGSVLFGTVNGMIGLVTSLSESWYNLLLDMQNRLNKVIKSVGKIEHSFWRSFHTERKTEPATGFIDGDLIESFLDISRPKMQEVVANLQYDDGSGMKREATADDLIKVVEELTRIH

O=C1CCC(N2C(=O)c3ccccc3C2=O)C(=O)N1 (centres unmarked) [thalidomide]
SALL4 mRNA levels (ISH) (SALL4 mRNA): not altered upon thalidomide treatment | SALL4 protein levels in testis (SALL4): remain unchanged; also recorded: caused degradation of ZFP91 but not SALL4
